Experimental data as given in EP4768499A1, “MACROCYCLIC PEPTIDE COMPOUND HAVING CELL MEMBRANE PERMEABILITY AND METABOLIC STABILITY, AND LIBRARY CONTAINING SAME” (Chugai Seiyaku Kabushiki Kaisha, priority 2023, dated 2025).
Like-named read-outs stand apart in the source and are kept apart here. Starred links: 1 amine or outer side, 2 acyl side, 3 side chain; linkers in the order of their positions; H or OH if unused. Positions of bridges follow the written chain, without caps; N, C: chain ends. Non-standard residues stand in square brackets, D forms with d. Residues, ends and D or L forms follow the SMILES beside them. *: point of attachment. NMeF = CN[C@@H](Cc1ccccc1)C(=O)O; NMeI = CC[C@H](C)[C@H](NC)C(=O)O; NMeT = CN[C@H](C(=O)O)[C@@H](C)O; hPhe = N[C@@H](CCc1ccccc1)C(=O)O; NMeβAla = CN(CCC(=O)[*:2])[*:1]; NMeL = CN[C@@H](CC(C)C)C(=O)O; dNMeV = CN[C@@H](C(=O)O)C(C)C; NMeV = CN[C@H](C(=O)O)C(C)C; NMeAbu = CC[C@H](NC)C(=O)O; NMeA = CN[C@@H](C)C(=O)O; Piperidide = C1CCN(*)CC1; Abu = CC[C@H](N)C(=O)O; NBuGly = CCCCNCC(=O)O; βAla = NCCC(=O)O; Sar = CNCC(=O)O; tBu = CC(C)(C)*

How the values were obtained:
[1] = Metabolic stability test: liver microsomal stability assay; assay type: in vitro ADME, mouse; conditions: for microsomal CLint at 1 µM: male, pH 7.4, presence of NADPH, read-out: Mouse Hepatic Microsome CLh,int NADPH(+)
[2] = Membrane permeability test using Caco-2 cells with preincubation; assay type: in vitro ADME; conditions: Caco-2
Caco-2 cells = assay: as above; assay type: in vitro ADME
[3] = mouse liver microsomes 0.5 mg protein/mL, compound 1 µM
[4] = mouse liver microsomes 0.5 mg protein/mL, compound 1 µM, absence of NADPH
[5] = preincubation 20 to 24 hours, Apical FaSSIF/HBSS pH 6.0, Basal HBSS 4% BSA pH 7.4, 180 minutes, read-out: Caco2 Papp
[6] = Caco-2 cells, preincubation 20 to 24 hours, apical FaSSIF/HBSS 1% DMSO pH 6.0, basal HBSS 4% BSA pH 7.4, basal sample at 180 minutes

Structure (SMILES) | microsomal CLint at 1 µM [1, 3] | Mouse Hepatic Microsome CLh,int NADPH(-) [1, 4] | Papp A→B [2, 5] | Caco2 Papp (10^-6 cm/sec) (Caco-2 cells; [6]) | Mouse Hepatic Microsome CLh,int NADPH(-) [1] | Papp A→B [2] | Caco2 Papp (10^-6 cm/sec) (Caco-2 cells; Caco-2)
CC[C@H](C)[C@H]1C(=O)NCCC(=O)N(C)[C@@H](CC(C)C)C(=O)N[C@H](C(=O)N2CCCCC2)CC(=O)N(C)[C@@H](C)C(=O)N[C@@H](CC(C)C)C(=O)N[C@@H]([C@@H](C)O)C(=O)N(C)[C@@H](Cc2ccccc2)C(=O)NCCC(=O)N(C)[C@@H](C(C)C)C(=O)N[C@@H](CC(C)C)C(=O)N(C)[C@@H]([C@@H](C)CC)C(=O)N[C@@H](CCc2ccccc2)C(=O)N(C)CC(=O)N1C [pd024] ([NMeA]LT[NMeF][βAla][NMeV]L[NMeI][hPhe][Sar][NMeI][βAla][NMeL]D-Piperidide; lactam N-14) |  |  |  |  | 20.0 µL/min/mg Protein | 0.3 ×10⁻⁶ cm/s | 0.30 10^-6 cm/sec
CC[C@H](C)[C@@H]1NC(=O)[C@H](C)NC(=O)[C@H](C(C)C)N(C)C(=O)[C@H](COC(C)(C)C)NC(=O)[C@H](C)N(C)C(=O)C[C@@H](C(=O)N2CCCCC2)NC(=O)[C@H](C(C)C)NC(=O)[C@H](Cc2ccccc2)N(C)C(=O)[C@H](CC(C)C)N(C)C(=O)[C@H]([C@@H](C)O)NC(=O)[C@H](CC)N(C)C(=O)[C@H](Cc2ccccc2)N(C)C(=O)[C@H](C)NC(=O)[C@@H]2CCCN2C1=O [pd025] ([NMeA]S(tBu)[NMeV]AIPA[NMeF][NMeAbu]T[NMeL][NMeF]VD-Piperidide; lactam N-14) | 14.8 µL/min/mg | 15.8 µL/min/mg Protein | 0.05 ×10⁻⁶ cm/s | 0.05 10^-6 cm/sec |  |  | 
CCCCN1CC(=O)N[C@@H]([C@@H](C)CC)C(=O)N(C)[C@@H](CC(C)C)C(=O)N[C@@H](C(C)C)C(=O)N[C@H](C(=O)N2CCCCC2)CC(=O)N(C)[C@@H](C)C(=O)N(C)[C@@H](CC(C)C)C(=O)N[C@@H]([C@@H](C)O)C(=O)N(C)[C@@H](Cc2ccccc2)C(=O)N[C@@H](CC)C(=O)N(C)[C@@H](Cc2ccccc2)C(=O)N[C@@H](C)C(=O)N(C)CCC(=O)N[C@@H](CC(C)C)C1=O [pd026] ([NMeA][NMeL]T[NMeF][Abu][NMeF]A[NMeβAla]L[NBuGly]I[NMeL]VD-Piperidide; lactam N-14) | 63.5 µL/min/mg | 29.9 µL/min/mg Protein | 0.58 ×10⁻⁶ cm/s | 0.58 10^-6 cm/sec |  |  | 
CC[C@H](C)[C@@H]1NC(=O)[C@H](CC(C)C)N(C)C(=O)[C@H](CC(C)C)NC(=O)[C@H](C)N(C)C(=O)C[C@@H](C(=O)N2CCCCC2)NC(=O)[C@H](CC(C)C)NC(=O)[C@@H]2CCCN2C(=O)[C@H](CC(C)C)N(C)C(=O)[C@H]([C@@H](C)O)NC(=O)[C@H]([C@@H](C)CC)N(C)C(=O)[C@H](Cc2ccccc2)N(C)C(=O)[C@H](C)NC(=O)[C@H](Cc2ccccc2)N(C)C(=O)[C@H](CC(C)C)NC1=O [pd027] ([NMeA]L[NMeL]IL[NMeF]A[NMeF][NMeI]T[NMeL]PLD-Piperidide; lactam N-14) | 42.4 µL/min/mg | 31.1 µL/min/mg Protein | 0.02 ×10⁻⁶ cm/s | 0.02 10^-6 cm/sec |  |  | 
CC[C@@H]1NC(=O)[C@H]([C@@H](C)O)N(C)C(=O)[C@H](CC(C)C)N(C)C(=O)[C@H]([C@@H](C)CC)NC(=O)[C@H](Cc2ccccc2)N(C)C(=O)CN(C)C(=O)C[C@@H](C(=O)N2CCCCC2)NC(=O)[C@H](C(C)C)N(C)C(=O)[C@H](CC)NC(=O)[C@H](COC(C)(C)C)NC(=O)[C@H](C)N(C)C(=O)[C@H](CC)NC(=O)[C@H](CC(C)C)N(C)C(=O)[C@H](CCc2ccccc2)NC1=O [pd028] ([Sar][NMeF]I[NMeL][NMeT][Abu][hPhe][NMeL][Abu][NMeA]S(tBu)[Abu][NMeV]D-Piperidide; lactam N-14) | 37.2 µL/min/mg | 22.1 µL/min/mg Protein | 0.03 ×10⁻⁶ cm/s | 0.03 10^-6 cm/sec |  |  | 
CC[C@H](C)[C@@H]1NC(=O)[C@H](CC(C)C)N(C)C(=O)C[C@@H](C(=O)N2CCCCC2)NC(=O)[C@H](Cc2ccccc2)N(C)C(=O)[C@H](C(C)C)NC(=O)[C@@H]2CCCN2C(=O)[C@H]([C@@H](C)CC)NC(=O)[C@H](CC)N(C)C(=O)[C@H](C(C)C)N(C)C(=O)[C@H](CC(C)C)NC(=O)[C@H](CC(C)C)N(C)C(=O)[C@H]([C@@H](C)O)NC(=O)[C@H](Cc2ccccc2)NC(=O)CN(C)C1=O [pd029] ([NMeL]I[Sar]FT[NMeL]L[NMeV][NMeAbu]IPV[NMeF]D-Piperidide; lactam N-14) | 38.2 µL/min/mg | 36.6 µL/min/mg Protein | 0.02 ×10⁻⁶ cm/s | 0.02 10^-6 cm/sec |  |  | 
CC[C@@H]1NC(=O)[C@H](C(C)C)N(C)C(=O)[C@H](CC(C)C)NC(=O)[C@H](Cc2ccccc2)N(C)C(=O)[C@@H](C(C)C)N(C)C(=O)C[C@@H](C(=O)N2CCCCC2)NC(=O)[C@H](CC(C)C)NC(=O)[C@H](C(C)C)N(C)C(=O)[C@H](Cc2ccccc2)N(C)C(=O)[C@H](CC(C)C)NC(=O)[C@H](CC(C)C)N(C)C(=O)[C@H](C)N(C)C(=O)[C@H]([C@@H](C)O)NC(=O)[C@H](CC(C)C)N(C)C1=O [pd033] ([dNMeV][NMeF]L[NMeV][Abu][NMeL]T[NMeA][NMeL]L[NMeF][NMeV]LD-Piperidide; lactam N-14) | 47.8 µL/min/mg | 34.1 µL/min/mg Protein | 0.03 ×10⁻⁶ cm/s | 0.03 10^-6 cm/sec |  |  | 

Further lines, with some results ahead:

microsomal CLint at 1 µM [1, 3] | Mouse Hepatic Microsome CLh,int NADPH(-) [1, 4] | Papp A→B [2, 5] | Caco2 Papp (10^-6 cm/sec) (Caco-2 cells; [6]) | Structure (SMILES) | Mouse Hepatic Microsome CLh,int NADPH(-) [1] | Papp A→B [2] | Caco2 Papp (10^-6 cm/sec) (Caco-2 cells; Caco-2)
33.7 µL/min/mg | 28.5 µL/min/mg Protein | 0.04 ×10⁻⁶ cm/s | 0.04 10^-6 cm/sec | CC[C@@H]1NC(=O)[C@H](Cc2ccccc2)N(C)C(=O)[C@H](CC(C)C)NC(=O)CNC(=O)[C@H]([C@@H](C)O)N(C)C(=O)[C@H](CC(C)C)N(C)C(=O)[C@H]([C@@H](C)CC)NC(=O)[C@H](Cc2ccccc2)N(C)C(=O)CN(C)C(=O)C[C@@H](C(=O)N2CCCCC2)NC(=O)[C@H](C(C)C)N(C)C(=O)[C@H](CC(C)C)NC(=O)[C@H](C(C)C)NC(=O)[C@H](C)N(C)C1=O [pd030] ([Sar][NMeF]I[NMeL][NMeT]GL[NMeF][Abu][NMeA]VL[NMeV]D-Piperidide; lactam N-14) |  |  | 
40.3 µL/min/mg | 32.3 µL/min/mg Protein | 0.04 ×10⁻⁶ cm/s | 0.04 10^-6 cm/sec | CC[C@@H]1NC(=O)[C@H](C(C)C)N(C)C(=O)[C@H](CC(C)C)NC(=O)[C@H](CC(C)C)N(C)C(=O)[C@H]([C@@H](C)O)NC(=O)CN(C)C(=O)[C@H]([C@@H](C)CC)NC(=O)[C@H](Cc2ccccc2)N(C)C(=O)[C@H](CC(C)C)N(C)C(=O)C[C@@H](C(=O)N2CCCCC2)NC(=O)[C@H](Cc2ccccc2)N(C)C(=O)[C@H](COC(C)(C)C)NC(=O)[C@@H]2CCCN2C(=O)[C@H]([C@@H](C)CC)NC1=O [pd031] ([NMeL][NMeF]I[Sar]T[NMeL]L[NMeV][Abu]IPS(tBu)[NMeF]D-Piperidide; lactam N-14) |  |  | 
28.9 µL/min/mg | 28.7 µL/min/mg Protein | 0.72 ×10⁻⁶ cm/s | 0.72 10^-6 cm/sec | CC(C)C[C@@H]1NC(=O)[C@H](CC(C)C)N(C)C(=O)[C@H](C(C)C)N(C)C(=O)[C@H](CCc2ccccc2)NC(=O)[C@H]([C@@H](C)O)N(C)C(=O)[C@@H](C(C)C)NC(=O)C[C@@H](C(=O)N2CCCCC2)NC(=O)[C@H](C(C)C)N(C)C(=O)[C@H](CC(C)C)NC(=O)[C@H](Cc2ccccc2)N(C)C(=O)[C@@H]2CCCN2C(=O)[C@H](C(C)C)NC(=O)[C@H](CC(C)C)N(C)C(=O)CN(C)C1=O [pd032] ([dV][NMeT][hPhe][NMeV][NMeL]L[Sar][NMeL]VP[NMeF]L[NMeV]D-Piperidide; lactam N-14) |  |  | 
46.8 µL/min/mg | 36.0 µL/min/mg Protein | 0.27 ×10⁻⁶ cm/s | 0.27 10^-6 cm/sec | CC[C@H](C)[C@@H]1NC(=O)[C@H](C)N(C)C(=O)[C@H]([C@@H](C)O)NC(=O)[C@H](Cc2ccccc2)N(C)C(=O)[C@H](COC(C)(C)C)NC(=O)[C@H](CC(C)C)N(C)C(=O)[C@H](C(C)C)NC(=O)CN(C)C(=O)[C@H](Cc2ccccc2)N(C)C(=O)[C@H]([C@@H](C)CC)NC(=O)[C@H](CC(C)C)N(C)C(=O)CCN(C)C(=O)C[C@@H](C(=O)N2CCCCC2)NC(=O)[C@H](CC(C)C)N(C)C1=O [pd034] ([NMeβAla][NMeL]I[NMeF][Sar]V[NMeL]S(tBu)[NMeF]T[NMeA]I[NMeL]D-Piperidide; lactam N-14) |  |  | 
28.3 µL/min/mg | 27.5 µL/min/mg Protein | < 0.11 ×10⁻⁶ cm/s | <0.11 10^-6 cm/sec | CCCCN1CC(=O)N[C@@H](CC(C)C)C(=O)N(C)[C@@H]([C@@H](C)CC)C(=O)N[C@@H](CC)C(=O)N(C)[C@@H]([C@@H](C)O)C(=O)N(C)[C@@H](Cc2ccccc2)C(=O)N[C@@H]([C@@H](C)CC)C(=O)N(C)[C@@H](CC(C)C)C(=O)N[C@H](C(=O)N2CCCCC2)CC(=O)N(C)[C@@H](C)C(=O)N[C@@H](CC(C)C)C(=O)N(C)[C@@H](CC(C)C)C(=O)N(C)[C@@H](Cc2ccccc2)C(=O)N[C@@H](CC)C1=O [pd035] ([NMeA]L[NMeL][NMeF][Abu][NBuGly]L[NMeI][Abu][NMeT][NMeF]I[NMeL]D-Piperidide; lactam N-14) |  |  | 
35.4 µL/min/mg | 25.7 µL/min/mg Protein | 0.28 ×10⁻⁶ cm/s | 0.28 10^-6 cm/sec | CC[C@H](C)[C@H]1C(=O)N[C@@H](CC(C)C)C(=O)N(C)[C@@H](CC(C)C)C(=O)N2CCC[C@H]2C(=O)N(C)[C@@H](C(C)C)C(=O)N[C@H](C(=O)N2CCCCC2)CC(=O)N[C@@H](C)C(=O)N(C)[C@@H](CC(C)C)C(=O)N[C@@H](C(C)C)C(=O)N(C)[C@@H](Cc2ccccc2)C(=O)N(C)[C@@H](CC(C)C)C(=O)N[C@@H](C)C(=O)N(C)[C@@H](Cc2ccccc2)C(=O)N[C@@H]([C@@H](C)O)C(=O)N1C [pd036] (A[NMeL]V[NMeF][NMeL]A[NMeF]T[NMeI]L[NMeL]P[NMeV]D-Piperidide; lactam N-14) |  |  | 
